{
  "source": "paper PMC7466753",
  "about": "“An epoxide hydrolase from endophytic Streptomyces shows unique structural features and wide biocatalytic activity” (Acta Crystallographica. Section D, Structural Biology, 2020)",
  "molecules": {"B1": {"name": "B1EPH2, α/β-epoxide hydrolase from Streptomyces sp. CBMAI 2042 (enzyme)", "chain": "VPQPPTDDPTTPAEKGAVHRLVDTPGGRIHLVEQGTGPLVLLVHGFPESWYSWRHQLPALAAAGYRAAAIDVRGYGRSAKPAATDAYRMLAHVADNTAVVHALGEETATVVGHDWGSPIAANSALLRPDVFTAVGLLSVPYAPRGEHRPTDGFARIGGDEEFYVSYFQAPGRAEAEIERDVRGWLAGFYTGLTGGALTPEEHGRLFFVPPGAHLADRFPTGPLPAWLTEADLDVYSGEFERSGLTGALNRYRNVDRDWEDLAAWHGAPITQPSLFIGGALDASTTWMADALDAYPATLPGLSAAHILEGCGHWIQQERPDEVNRLLTQWLDGLR", "notes": "B1EPH2, putative α/β-epoxide hydrolase of Streptomyces sp; CBMAI 2042; the text says 344 amino acids; the b1eph2 ORF was amplified from genomic DNA and cloned into pET-29b(+) (plasmid pGTEPH2); Hexamer by the crystal structure (three protomers in the asymmetric unit, twofold crystallographic symmetry) and by analytical gel filtration; they are surmised from pET-29b(+) and the nickel column; also …"}},
  "key": {"B1EPH2": {"molecular_target": "T1, B1EPH2 (Streptomyces sp. CBMAI 2042, UniProt A0ACD6BAW7)", "T1 construct": "gene STAN_0072; ORF in pET-29b(+), E. coli BL21(DE3), nickel IMAC and gel filtration; protomer 37 kDa, hexamer (252 kDa by gel filtration)", "assay": "adrenaline test (periodate back-titration, […] nm)", "format": "biochemical", "conditions": "pH 6.0 sodium phosphate; racemic substrate in DMSO"}, "[1]": {"molecular_target": "the molecule itself", "assay": "crystal structure; X-ray, 2.2 Å, space group P4(1)22; hanging drop, 0.1 M sodium cacodylate pH 6.5, 1 M trisodium citrate, protein 12.5 mg/ml in 50 mM HEPES pH 8.0, 300 mM NaCl; three protomers in the asymmetric unit, hexamer by twofold crystallographic symmetry"}},
  "data": [
    {"molecule": "c1ccc(OCC2CO2)cc1", "note": "(racemic) [compound 3, phenyl glycidyl ether]", "values": [
      {"measurement": "% conversion relative to 1,2-cyclohexanediol", "setting": "B1EPH2", "result": 25, "unit": "%"}
    ]},
    {"molecule": "B1", "values": [
      {"measurement": "stoichiometry N", "setting": "[1]", "result": 6}
    ]}
  ]
}
